According to patent US7388008B2, “Lysine based compounds” (priority 2004, dated 2008):

Test: Bioavailability: plasma concentration after single oral dose in rats
Type: in vivo, male Sprague-Dawley rats
Details: for AUC: 50 mg/Kg po, rat plasma; for Delivery of parent drug (PL-100, PL-337) compared to non-aqueous formulations of PL-100 and PL-337: aqueous dosing; for Delivery of parent drug (PL-100, PL-337) compared to non-aqueous formulations of PL-100 and PL-337 / Administered compound detected in the blood samples: 50 mg/kg po, rat; for Administered compound detected in the blood samples: delivered as aqueous solutions
Protocol: To assess the extent of in vivo cleavage of the phosphate group from the putative compounds, PL-100, PL-462 (based on PL-100), PL-337 and PL-515 (based on PL-337) compounds were administered po (50 mg/kg) to male Sprague-Dawley rats and their plasma concentration measured at different time intervals post-administration. All test articles (PL-100, PL-462, PL-337 and PL-515) were prepared in different vehicle at the final concentration of 25 mg/mL. The vehicle composition is as follows: (1) 20% ethanol; 50% propylene glycol; 0.05% w/v Tween 20 and water (Mix); (2) PBS buffer (PBS). Test articles were administered to male Sprague-Dawley rats at a single oral dose of 50 mg/kg. Each article was tested in three rats. Blood samples (0.2–0.3 mL) were collected at the post-dose time of 10, 20, 40, 60, 120, 180 and 360 minutes. The harvested blood was centrifuged to isolate plasma. The resulting plasma was separated and stored at −70° C. Plasma samples together with standards and quality control samples were treated to precipitate proteins, then analyzed by HPLC-MS, for the presence of PL-462, PL-100, PL-515 and PL-337.

[1] = vehicle Mix (20% ethanol; 50% propylene glycol; 0.05% w/v Tween 20 and water)
[2] = vehicle PBS, parent drug (PL-100 or PL-337) detected

Compound | AUC [1] | AUC [2] | Delivery of parent drug (PL-100, PL-337) compared to non-aqueous formulations of PL-100 and PL-337 | Administered compound detected in the blood samples
COC(=O)N[C@H](C(=O)NCCCC[C@@H](CO)N(CC(C)C)S(=O)(=O)c1ccc(N)cc1)C(c1ccccc1)c1ccccc1 [PL-100, (1S,5S)-(1-{5-[(4-amino-benzenesulfonyl)-isobutyl-amino]-6-hydroxy-hexylcarbamoyl}-2,2-diphenyl-ethyl)-carbamic acid methyl ester] | 0.675 μg/hr * ml |  |  | 
COC(=O)N[C@H](C(=O)NCCCC[C@@H](CO)N(CC(C)C)S(=O)(=O)c1ccc(N)c(F)c1)C(c1ccccc1)c1ccccc1 [PL-337, (1-{5-[(4-amino-3-fluoro-benzenesulfonyl)-isobutyl-amino]-6-hydroxy-hexylcarbamoyl}-2,2-diphenyl-ethyl)-carbamic acid methyl ester] | 1.180 μg/hr * ml |  |  | 
COC(=O)N[C@H](C(=O)NCCCC[C@@H](COP(=O)(O)O)N(CC(C)C)S(=O)(=O)c1ccc(N)cc1)C(c1ccccc1)c1ccccc1.[Na] [PL-462, (1S,5S)-(1-{5-[(4-amino-benzenesulfonyl)-isobutyl-amino]-6-phosphonooxy-hexylcarbamoyl}-2,2-diphenyl-ethyl)-carbamic acid methyl ester sodium salt] |  | 0.816 μg/hr * ml | equivalent to slightly superior | None
COC(=O)N[C@H](C(=O)NCCCC[C@@H](COP(=O)(O)O)N(CC(C)C)S(=O)(=O)c1ccc(N)c(F)c1)C(c1ccccc1)c1ccccc1 [PL-515, (1S,5S)-(1-{5-[(4-amino-3-fluoro-benzenesulfonyl)-isobutyl-amino]-6-phosphonooxy-hexylcarbamoyl}-2,2-diphenyl-ethyl)-carbamic acid methyl ester] |  | 1.075 μg/hr * ml | equivalent to slightly superior | None
